Source: PubChem BioAssay (NCI)
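The compound was tested at five concentrations on cells cultured in 96-well plates, with a 48-hour exposure period. At the GI50, growth is halved. TGI denotes the concentration required for complete inhibition of growth.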

Columns and labels:
Test in all cases: NCI tumour cell line growth inhibition, 48 h
[1] = tested on: HL-60(TB) leukemia
[2] = tested on: OVCAR-3 ovarian
[3] = tested on: CAKI-1 renal
[4] = tested on: TK-10 renal
[5] = tested on: SNB-75 CNS
[6] = tested on: IGROV1 ovarian
[7] = tested on: HOP-62 NSCLC
[8] = tested on: SK-OV-3 ovarian
[9] = tested on: ACHN renal
[10] = tested on: K-562 leukemia

Row | SMILES | TGI [1] | TGI [2] | TGI [3] | TGI [4] | TGI [5] | TGI [6] | TGI [7] | TGI [8] | TGI [9] | TGI [10] | GI50 [1] | GI50 [2] | GI50 [3] | GI50 [4] | GI50 [5] | GI50 [6] | GI50 [7] | GI50 [8] | GI50 [9] | GI50 [10]
1 | CN=C(NC#N)NCc1ccccc1 | > 100 µM | > 100 µM | > 100 µM | > 100 µM | > 100 µM | > 100 µM | > 100 µM | > 100 µM | > 100 µM |  |  |  |  |  |  |  |  |  |  | 
2 | COc1cc(C2C(Cl)C(=O)N2NC(=O)c2ccccc2O)cc(OC)c1OC (stereo not given) | 5.96 µM | > 10 µM |  | > 10 µM | > 10 µM | > 10 µM |  |  | > 10 µM | > 10 µM |  |  |  |  |  |  |  |  |  | 
3 | O=C(NCCOCCO)c1ccc(O)cc1 | > 100 µM |  |  | > 100 µM |  | > 100 µM | > 100 µM | > 100 µM | > 100 µM | > 100 µM |  |  |  |  |  |  |  |  |  | 
4 | COc1ccc2c(c1)cn1c3ccc(OC)cc3[nH]c(=O)c21 | < 0.0219 µM | < 0.024 µM |  | 2.44 µM | 1.19 µM | 0.813 µM | 1.66 µM | 4.48 µM | 1.69 µM |  | < 0.0113 µM | < 0.0152 µM | < 0.01 µM | 1.17 µM | 0.0203 µM | < 0.0155 µM | < 0.0252 µM | < 0.0192 µM | < 0.0226 µM | 
5 | O=C1C2Cc3ccccc3CN2C(=O)N1CCN1CCOCC1 (stereo not given) | > 100 µM | > 100 µM | > 100 µM | > 100 µM |  | > 100 µM | > 100 µM |  | > 100 µM | > 100 µM |  |  |  |  |  |  |  |  |  | 
6 | O=C1OC(/C=C/c2ccccc2)C(=O)C1=O (stereo not given) | > 100 µM |  |  | > 100 µM | > 100 µM | > 100 µM | > 100 µM | > 100 µM | > 100 µM | > 100 µM |  |  |  |  |  |  |  |  |  | 
7 | CCN(CC)[C@@H]1c2cc3c(cc2C(c2cc(OC)c(O)c(OC)c2)C2C(=O)CO[C@@H]21)OCO3 (stereo not given in full) | > 100 µM |  | > 100 µM | > 100 µM | > 100 µM | > 100 µM | > 100 µM | > 100 µM | > 100 µM | > 100 µM |  |  |  |  |  |  |  |  |  | 
8 | OCC1C2C=CC(O2)[C@H]1CO (stereo not given in full) | > 100 µM | > 100 µM | > 100 µM | > 100 µM | > 100 µM | > 100 µM | > 100 µM | > 100 µM | > 100 µM |  |  |  |  |  |  |  |  |  |  | 
9 | Nc1nc(-c2ccccc2Cl)cc(-c2ccc(Cl)cc2Cl)n1 | 17.3 µM | 20.7 µM | > 100 µM | 51 µM |  | > 100 µM | > 100 µM | 62.3 µM | > 100 µM | > 100 µM | 3.14 µM | 4.05 µM | 9.27 µM | 9.46 µM |  | 12.3 µM | 8.21 µM | 10.1 µM | 10.4 µM | 3.97 µM
10 | COc1cc(/C=C/C(=O)c2ccc(SC)cc2)cc(OC)c1OC |  | 23.8 µM | 32.2 µM | 33.5 µM | 20.5 µM |  | 29.5 µM | 30.6 µM | 19.5 µM | 16.4 µM |  | 10.9 µM | 16.1 µM | 18 µM | 6.08 µM |  | 14.7 µM | 15.8 µM | 6.98 µM | 3.2 µM
11 | Cc1cc(=O)[nH]c2c1C(=O)C(=O)C=C2 |  |  | 37.4 µM | > 100 µM | > 100 µM | > 100 µM | 35.7 µM | > 100 µM | > 100 µM | > 100 µM |  |  | 19.4 µM | 64.1 µM | 33.5 µM | 48.6 µM | 17.6 µM | > 100 µM | 31.7 µM | 34.3 µM
12 | C=C(C=O)[C@@H]1CC=C(C=O)CC1 | > 100 µM |  | > 100 µM | 54.6 µM | > 100 µM | > 23.3 µM | > 76.7 µM | 50.5 µM | 9.65 µM | > 100 µM | 2.48 µM |  | 29.1 µM | 8.76 µM | 15.9 µM | 3.19 µM | 24.8 µM | 20.1 µM | 2.75 µM | 1.7 µM
13 | Nc1c2c(c(O)c3c1=C(CO)C=N3)=NCCS2=O (stereo not given) | 4.5 µM | 0.986 µM |  | 31.8 µM | 3.18 µM | 4.29 µM | 3.38 µM | 10.9 µM |  | 8.07 µM | 1.94 µM | 0.28 µM |  | 17.5 µM | 1.74 µM | 1.9 µM | 1.86 µM | 3.11 µM |  | 2.81 µM
14 | COc1ccc(/C=C\c2cc(OC)c(OC(C)=O)c(OC)c2)cc1 |  | > 100 µM | > 100 µM |  | 15 µM | > 100 µM | 85.6 µM | > 100 µM | > 100 µM | 31 µM |  |  |  |  |  |  |  |  |  | 
15 | OC1/C(=C/c2ccccc2)CNC/C1=C\c1ccccc1 (stereo not given) | > 100 µM | > 100 µM | > 100 µM | > 100 µM | > 100 µM | > 100 µM | > 100 µM | > 100 µM | > 100 µM |  |  |  |  |  |  |  |  |  |  | 
16 | Clc1ccc2c(NCCCNCc3ccc4c(c3)OCO4)ccnc2c1 | 4.79 µM | 18.7 µM |  | 5.54 µM | 3.37 µM | 20.9 µM | 24.2 µM | 29.3 µM | 12 µM | 7.63 µM | 2.22 µM | 5.14 µM |  | 2.19 µM | 1.52 µM | 5.52 µM | 11.5 µM | 14.7 µM | 3.45 µM | 2.19 µM
17 | NCCCCNCCCNC(=O)c1csc(-c2nc(CCN)sc2Cl)n1 | > 100 µM | > 100 µM |  | > 100 µM | > 100 µM | > 100 µM | > 100 µM | > 100 µM | > 100 µM | > 100 µM |  |  |  |  |  |  |  |  |  | 
18 | OC1OC2COC(c3ccccc3)OC2C(O)C1O (stereo not given) | > 100 µM | > 100 µM | > 100 µM | > 100 µM |  | > 100 µM | > 100 µM | > 100 µM | > 100 µM | > 100 µM |  |  |  |  |  |  |  |  |  | 
19 | Cc1ccc(Sc2cc([N+](=O)[O-])cc(Sc3ccc(C)cc3)c2Sc2ccc(C)cc2)cc1 | > 100 µM | > 100 µM | > 100 µM | > 100 µM | > 100 µM | > 100 µM | > 100 µM |  | > 100 µM | > 100 µM |  |  |  |  |  |  |  |  |  | 
